The values that follow come from US7304092B1, “Compounds and methods for treating tumors, cancer and hyperproliferative diseases” (Yale University, priority 2002, dated 2007).

Entries after “also recorded” stand apart in the source; their conditions may differ.

Assay [1] has as its system 32DtetP210Bcr-Abl cells (32D-bcr-abl). Kind of assay: Low cell density cell proliferation / cell death assay, bcr-abl dependent cells. Conditions: for activity (death of 32D-bcr-abl cells) / selectivity (32D-bcr-abl over control cells): result in words; for activity (death of 32D-bcr-abl cells): structure-activity comparison; for selectivity (32D-bcr-abl over control cells): versus control 32D cell line; for activity / selectivity: in words; for inhibition of the 32DtetP210bcrabl cell line: 1 micromolar, FIG. 13, in words. Type of assay: cell-based, murine. As to the method:
(§1) The acetylenes were prepared by deprotonation of a propiolate (either methyl or tert-butyl) with n-butyllithium and subsequent reaction with an isocyanate (FIG. 4). Modifications may be readily made following the aforementioned schemes. The furan and acetylene libraries were both tested for activity in a cell-based assay where the death of engineered murine myeloid cells (32D-bcr-abl), the survival of which depends on the activity of bcr-abl tyrosine kinase, was sought.
(§2) The biological activity of these compounds was evaluated in two ways, a murine cell line differential proliferation assay and a NCI 60 human carcinoma cell-line growth inhibition and cell death assay. The murine cell death assays were performed using a p210bcrabl transformed 32D murine cell line. […] The NCl assay was performed in the Developmental Therapeutics Program at the National Cancer Institute. This assay measures the inhibition of cell growth and cell death from sixty different human carcinomas.
(§3) The furan and acetylene libraries were both tested for activity in a cell-based assay where the death of engineered murine myeloid cells (32D-bcr-abl), the survival of which is depends on the activity of bcr-abl tyrosine kinase, was sought.
(§4) Low cell density high throughput cell proliferation assay Between 50 and 100 32D and 32DtetP210Bcr-Abl cells in 100 microliters of medium without serum were exposed to the test compound for 15 minutes. An equal volume of 20% serum supplemented tissue culture medium was then added and the cells were inoculated in single well in 32 wells of a 96 well plate. The endpoint of the assay was the fraction of the 32 wells in which a cell pellet was seen to develop which was filled with live cells. This assay is subject to automated screening by a plate reader for the cell pellet. We used this high throughput assay to screen for compounds that suppress the growth of the 32DtetP210Bcr-Abl cell line in the absence of IL-3, but allow the growth of the 32D cell line in the presence of IL-3. Various concentrations of each compound were tested.

The test system of assay [2] is 32D cells. Kind of assay: Low cell density cell proliferation assay, control cell line. Type of assay: cell-based, murine. As to conditions: for control cells surviving: 100 nM. On the procedure:
as §1
as §2, with “carcinomas. Both the acetylene and furan structural cores represent novel chemical entities with no prior reports of biological activity. […] At present, the use of these compounds is to be preferred in the treatment of tumors and cancer.” for “carcinomas.”
as §3, §4

Assay [3] deals with 60 human carcinoma cell lines. Kind of assay: NCI 60 human carcinoma cell-line growth inhibition and cell death assay, whole panel. The class given is cell-based. As to the method: as §2, with “carcinomas. Both the acetylene and furan structural cores represent novel chemical entities with no prior reports of biological activity. […] At present, the use of these compounds is to be preferred in the treatment of tumors and cancer.” for “carcinomas.”
(§5) In order to obtain additional information about the behavior of our compounds in cancerous cells, 18 compounds were submitted to and accepted by the NCl for testing on 60 human carcinoma cell lines as set forth in the examples section. This would confirm the activity seen in our cell-based assay and maybe give an insight into the mechanism of action and biological target of the acetylene/furan compounds. […] As a result, K1P was singled out by the NCl for further testing: MTD (Maximum Tolerated Dose) and murine hollow fiber in vivo assay. These are being carried out at the present time, along with testing of furans AN7A and AN7B in the 60 human cancer cell lines. […]

For assay [4], the system named is carcinoma and model carcinoma cell lines. Kind of assay: Summary of activity in the cell line assays. The class given is cell-based. As to conditions: in words. As to the method:
as §2, with “carcinomas. Both the acetylene and furan structural cores represent novel chemical entities with no prior reports of biological activity. […] At present, the use of these compounds is to be preferred in the treatment of tumors and cancer.” for “carcinomas.”

In assay [5] the test system is leukemia cell lines. Nature of the assay: NCI 60 human carcinoma cell-line growth inhibition assay, leukemia panel. The class given is cell-based. As to conditions: span over the lines. As to the method:
as §2, with “carcinomas. Both the acetylene and furan structural cores represent novel chemical entities with no prior reports of biological activity. […] At present, the use of these compounds is to be preferred in the treatment of tumors and cancer.” for “carcinomas.”
as §5

The target in assay [6] is T1, CaMKIV (Homo sapiens, UniProt Q16566).
T1 construct: purchased Upstate Biotechnologies, Lake Placid, N.Y
T1 sequence (Q16566 1-473): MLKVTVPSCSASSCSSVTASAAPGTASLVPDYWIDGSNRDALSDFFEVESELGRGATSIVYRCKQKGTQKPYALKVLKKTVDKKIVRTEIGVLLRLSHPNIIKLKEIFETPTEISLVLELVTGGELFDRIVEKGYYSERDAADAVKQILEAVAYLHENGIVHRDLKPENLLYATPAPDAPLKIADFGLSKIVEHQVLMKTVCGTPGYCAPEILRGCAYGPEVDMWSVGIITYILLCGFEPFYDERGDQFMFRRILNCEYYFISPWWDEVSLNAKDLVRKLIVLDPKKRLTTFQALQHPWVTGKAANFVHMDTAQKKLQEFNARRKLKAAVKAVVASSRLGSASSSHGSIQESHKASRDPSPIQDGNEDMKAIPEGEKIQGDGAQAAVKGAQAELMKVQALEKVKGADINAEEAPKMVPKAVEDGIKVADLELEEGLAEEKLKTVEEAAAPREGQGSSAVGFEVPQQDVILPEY
Nature of the assay: Cell free kinase inhibition assay. Type of assay: biochemical. On the procedure: (§6) Cell Free Kinase Inhibition Assay. A panel of 60 kinases (Upstate Biotechnologies, Lake Placid, N.Y.) were analyzed in in vitro cell free kinase assays.

Assay [7] concerns the target T2, PKCbII (Homo sapiens, UniProt P05771).
T2 construct: purchased Upstate Biotechnologies, Lake Placid, N.Y
Nature of the assay: Cell free kinase inhibition assay. The class given is biochemical. As to the method:
as §6

Assay [8] concerns the target T3, CDK2/cyclinA (Homo sapiens, UniProt P24941).
T3 construct: purchased Upstate Biotechnologies, Lake Placid, N.Y
Nature of the assay: Cell free kinase inhibition assay. Type of assay: biochemical. As to the method: as §6

The subject of assay [9] is CaMKII. Kind of assay: Cell free kinase inhibition assay. Type of assay: biochemical. On the procedure:
as §6

For assay [10], the target named is T4, IKKBeta (Homo sapiens, UniProt O14920).
T4 construct: purchased Upstate Biotechnologies, Lake Placid, N.Y
T4 sequence (O14920 1-756): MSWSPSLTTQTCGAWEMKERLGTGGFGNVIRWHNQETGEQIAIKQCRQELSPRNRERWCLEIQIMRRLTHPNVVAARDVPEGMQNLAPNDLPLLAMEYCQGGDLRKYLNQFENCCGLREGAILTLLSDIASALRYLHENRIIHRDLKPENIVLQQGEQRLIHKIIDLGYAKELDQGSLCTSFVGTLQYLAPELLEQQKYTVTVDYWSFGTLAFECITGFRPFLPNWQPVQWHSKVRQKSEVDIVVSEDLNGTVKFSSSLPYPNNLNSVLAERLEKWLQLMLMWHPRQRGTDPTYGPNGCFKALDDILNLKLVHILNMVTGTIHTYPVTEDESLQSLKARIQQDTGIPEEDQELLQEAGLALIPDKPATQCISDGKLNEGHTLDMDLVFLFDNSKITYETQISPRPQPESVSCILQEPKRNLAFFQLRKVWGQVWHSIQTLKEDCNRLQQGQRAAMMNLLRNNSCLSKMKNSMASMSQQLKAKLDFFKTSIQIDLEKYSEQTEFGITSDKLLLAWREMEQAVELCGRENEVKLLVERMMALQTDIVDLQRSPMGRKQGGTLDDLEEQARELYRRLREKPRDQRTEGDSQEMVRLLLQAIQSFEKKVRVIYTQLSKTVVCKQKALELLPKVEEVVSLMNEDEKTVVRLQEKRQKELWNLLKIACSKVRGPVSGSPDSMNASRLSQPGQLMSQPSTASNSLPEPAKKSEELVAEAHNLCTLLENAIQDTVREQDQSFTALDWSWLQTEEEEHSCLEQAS
Kind of assay: Cell free kinase inhibition assay. Type of assay: biochemical. As to the method: as §6

The test system of assay [11] is CK1. Nature of the assay: Cell free kinase inhibition assay. The class given is biochemical. As to the method:
as §6

Assay [12] deals with T5, Fyn (Homo sapiens, UniProt P06241).
T5 construct: purchased Upstate Biotechnologies, Lake Placid, N.Y
Nature of the assay: Cell free kinase inhibition assay. The class given is biochemical. As to the method:
as §6

Assay [13] concerns the target T6, Lyn (Homo sapiens, UniProt P07948).
T6 construct: purchased Upstate Biotechnologies, Lake Placid, N.Y
Nature of the assay: Cell free kinase inhibition assay. The class given is biochemical. As to the method: as §6

The target of assay [14] is T7, PKCy (Homo sapiens, UniProt P05129).
T7 construct: purchased Upstate Biotechnologies, Lake Placid, N.Y
Kind of assay: Cell free kinase inhibition assay. The class given is biochemical. On the procedure: as §6

The subject of assay [15] is renal cell lines. Nature of the assay: NCI 60 human carcinoma cell-line growth inhibition assay, renal panel. The class given is cell-based. Conditions: span over the lines. On the procedure: as §2, with “carcinomas. Both the acetylene and furan structural cores represent novel chemical entities with no prior reports of biological activity. […] At present, the use of these compounds is to be preferred in the treatment of tumors and cancer.” for “carcinomas.”
as §5

T2 sequence (P05771 1-673 isoform P05771-2): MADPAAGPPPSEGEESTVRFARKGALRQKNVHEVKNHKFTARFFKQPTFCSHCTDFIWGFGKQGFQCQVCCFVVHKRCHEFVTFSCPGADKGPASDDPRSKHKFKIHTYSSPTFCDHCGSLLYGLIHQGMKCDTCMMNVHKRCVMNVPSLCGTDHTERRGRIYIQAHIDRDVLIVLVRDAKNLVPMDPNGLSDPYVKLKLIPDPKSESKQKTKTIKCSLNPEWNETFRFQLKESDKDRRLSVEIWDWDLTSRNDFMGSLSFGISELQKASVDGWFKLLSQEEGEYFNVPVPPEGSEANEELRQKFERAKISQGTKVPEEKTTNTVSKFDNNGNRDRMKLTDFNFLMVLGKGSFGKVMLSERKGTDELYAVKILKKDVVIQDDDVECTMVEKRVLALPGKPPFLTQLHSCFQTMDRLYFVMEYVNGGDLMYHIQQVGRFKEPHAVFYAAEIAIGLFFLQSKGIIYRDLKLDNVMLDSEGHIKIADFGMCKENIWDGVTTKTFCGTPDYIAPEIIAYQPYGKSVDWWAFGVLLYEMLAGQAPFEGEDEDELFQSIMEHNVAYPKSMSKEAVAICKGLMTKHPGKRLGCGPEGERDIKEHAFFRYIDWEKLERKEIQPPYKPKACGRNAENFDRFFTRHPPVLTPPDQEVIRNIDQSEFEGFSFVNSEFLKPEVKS
T5 sequence (P06241 whole entry, species assumed): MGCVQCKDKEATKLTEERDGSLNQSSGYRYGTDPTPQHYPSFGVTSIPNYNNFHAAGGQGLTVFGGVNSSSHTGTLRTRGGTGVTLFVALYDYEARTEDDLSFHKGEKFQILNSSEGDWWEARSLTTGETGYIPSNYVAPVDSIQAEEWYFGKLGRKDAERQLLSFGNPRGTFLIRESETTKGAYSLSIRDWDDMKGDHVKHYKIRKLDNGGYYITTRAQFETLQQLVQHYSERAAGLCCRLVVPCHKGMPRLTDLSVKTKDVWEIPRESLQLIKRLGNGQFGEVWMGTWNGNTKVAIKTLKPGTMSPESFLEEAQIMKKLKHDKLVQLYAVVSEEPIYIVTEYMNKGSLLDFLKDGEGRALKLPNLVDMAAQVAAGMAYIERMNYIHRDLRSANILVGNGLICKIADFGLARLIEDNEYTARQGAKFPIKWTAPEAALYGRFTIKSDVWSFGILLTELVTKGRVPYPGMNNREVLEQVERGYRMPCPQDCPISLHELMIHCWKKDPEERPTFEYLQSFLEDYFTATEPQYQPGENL
T6 sequence (P07948 whole entry, species assumed): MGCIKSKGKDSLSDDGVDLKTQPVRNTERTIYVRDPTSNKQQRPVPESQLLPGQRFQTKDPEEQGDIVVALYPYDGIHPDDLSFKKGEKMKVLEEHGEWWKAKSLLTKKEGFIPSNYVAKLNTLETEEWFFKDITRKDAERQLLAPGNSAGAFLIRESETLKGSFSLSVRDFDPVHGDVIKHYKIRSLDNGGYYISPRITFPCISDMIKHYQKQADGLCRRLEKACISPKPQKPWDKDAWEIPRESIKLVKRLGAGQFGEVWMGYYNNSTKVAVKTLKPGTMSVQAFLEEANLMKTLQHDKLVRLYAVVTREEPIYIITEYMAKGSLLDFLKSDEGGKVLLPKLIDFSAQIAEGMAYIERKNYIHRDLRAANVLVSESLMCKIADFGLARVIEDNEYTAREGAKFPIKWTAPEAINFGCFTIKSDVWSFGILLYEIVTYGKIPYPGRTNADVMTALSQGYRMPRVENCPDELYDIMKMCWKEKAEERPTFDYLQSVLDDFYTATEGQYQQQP

With `CC(C)(C)OC(=O)C#CC(=O)NC1CCCCC1` [AC1], in [1] (100 nM), the leukemic cells surviving is given as 50%. Also, the control cells surviving in assay [2] is 100%.

Take `COC(=O)C#CC(=O)Nc1ccc(OC)cc1` [AC3]: in assay [1], the “activity (death of 32D-bcr-abl cells)” value is “decreased activity and selectivity dramatically”; the “selectivity (32D-bcr-abl over control cells)” value is “decreased activity and selectivity dramatically”.

Take `COC(=O)C#CC(=O)Nc1ccccc1` [AC6]: in [1], the “activity (death of 32D-bcr-abl cells)” value is “increased both selectivity and activity”; the “selectivity (32D-bcr-abl over control cells)” value is “increased both selectivity and activity”.

Consider `COC(=O)C#CC(=O)Nc1c(F)cccc1F` [AC9], for which the “activity (death of 32D-bcr-abl cells)” value in [1] was “inactive”.

Turning to `COC(=O)C#CC(=O)Nc1c(C(C)C)cccc1C(C)C` [AC10], in assay [1], the “activity (death of 32D-bcr-abl cells)” value was “moderate activity” and the “selectivity (32D-bcr-abl over control cells)” value was “no selectivity”.

Regarding `COC(=O)C#CC1CCCCC1` [AC11], in assay [1], the “activity (death of 32D-bcr-abl cells)” value is “little or no activity”.

With `COC(=O)C#CC(=O)NCc1ccccc1` [AC13], in assay [1], the “activity (death of 32D-bcr-abl cells)” value is listed as “active” and the “selectivity (32D-bcr-abl over control cells)” value is recorded as “little selectivity”.

Regarding `COC(=O)C#CC(=O)Nc1cccc(OC)c1` [AC15], in [1] (1 uM level), the activity result is given as “activity was regained” and the selectivity result is given as “selectivity remained low”.

As to `COC(=O)C#CC(=O)Nc1ccccc1OC` [AC16], in assay [1] (1 uM level), the activity result was “activity was regained” and the selectivity result was “selectivity remained low”.

For `COC(=O)C#CC(=O)Nc1cc(OC)cc(OC)c1` [AC17], in assay [1] (1 uM level), the activity result is listed as “activity was regained” and the selectivity result was “selectivity remained low”.

On to `COC(=O)C#CC(=O)Nc1ccc2ccccc2c1` [AC19], for which, in assay [1] (100 nM), the activity entry is “excellent activity” and the selectivity entry is “shows selectivity”. In assay [3] (NCI 60 cell lines), the “concentration below which no activity was shown” value was at least 10 µM. The “activity against carcinoma and model carcinoma cell lines” value in assay [4] was “good activity”.

As to `COC(=O)C#CC(=O)Nc1ccc(-c2ccccc2)cc1` [AC21], in assay [1] (100 nM), the activity entry was “excellent activity” and the selectivity entry is “only AC19 shows selectivity”.

Regarding `COC(=O)C#CC(=O)Nc1ccc(Oc2ccccc2)cc1` [AC22], the results for the activity entry in [1] (10 nM) and in assay [1] (100 nM) were “not active” and “excellent activity; also recorded: very active”, respectively. In addition, the selectivity entry in [1] (100 nM) is “not selective”. The “inhibition of the 32DtetP210bcrabl cell line” value in assay [1] was “inhibitory”. Besides, in [1] (Mus musculus, 10 nanomolar of each drug, 32DtetP210bcrabl cell line, read-out: inhibition of P210bcrabl dependent cell growth), the inhibition (commonly how much of the control response was suppressed) at 0.01 µM was 10%. For the same compound, the “inhibition of the 32Dtet cell line” value in assay [2] (similar concentration (1 micromolar), in words) is “inhibits”. Besides, the GI50 (commonly the concentration that inhibits growth by half) in assay [5] fell in the range of 2.6 to 7.3 µM. For the same compound, in [4], the “activity against carcinoma and model carcinoma cell lines” value was “good activity”. In addition, the inhibition at 10 µM in [6] worked out at 64%; in assay [7], 48%; in assay [8], 50%; in assay [10], 45%; in assay [12] it was 29%; in [13] it was 98%. The compound also had an inhibition at 10 µM in assay [14] of 61%. The figures for the “% Inhibition at 10 μM” value in [9] and in [11] were 40% and “(37) %”, respectively.

Consider `COC(=O)C#CC(=O)NC1CCCCC1` [K1P], for which, in assay [1] (100 nM), the leukemic cells surviving is 50%. The “inhibition of the 32DtetP210bcrabl cell line” value in [1] is listed as “inhibitory”. The control cells surviving in assay [2] was found to be 100%. Further, the GI50 in assay [15] was 2.5 to 2.7 µM; in assay [5], 0.8 to 5 µM. In [3] (certain leukemia, colon cancer, melanoma, renal cancer cell lines and a breast cancer cell line, in words), the “activity in the NCI cell lines” value is “enhanced activity”. In addition, in [4], the “activity against carcinoma and model carcinoma cell lines” value is on record as “good activity”. The inhibition at 10 µM turned out to be 35% in assay [7] and 49% in assay [12]. Also, in assay [11], the % Inhibition (commonly how much of the control response was suppressed) at 10 μM is 46%.

Take `Cc1ccc(NC(=O)c2ccc(CN3CCN(C)CC3)cc2)cc1Nc1nccc(-c2cccnc2)n1` [STI-571, reference compound]: the control cells alive result in assay [2] (10 nM, in words) is recorded as “all the control cells are still alive”.
